The test system of assay [1] is Pseudomonas aeruginosa. Put plainly: Potentiation of imipenem-induced antibacterial activity against Pseudomonas aeruginosa T2229 expressing SPM-1 assessed as imipenem MIC at 32 mg/L by CLSI protocol based broth microdilution assay. It is filed as functional. Background: Dilution methods test growth across graded concentrations, often in twofold steps.
The subject of assay [2] is Escherichia coli. Put plainly: Synergistic antibacterial activity against Escherichia coli clinical isolate T2228 expressing VIM-1 assessed as fractional inhibitory concentration index in presence of imipenem by checkerboard assay. It is filed as functional.
Assay [3] has as its system Escherichia coli. The experiment in a line: Potentiation of ceftazidime-induced antibacterial activity against Escherichia coli clinical isolate T2228 expressing VIM-1 assessed as ceftazidime MIC at 32 mg/L by CLSI protocol based broth microdilution assay. It is filed as functional.
In assay [4] the test system is Pseudomonas aeruginosa. Put plainly: Potentiation of imipenem-induced antibacterial activity against Pseudomonas aeruginosa T2283 expressing VIM-2 assessed as fold change in imipenem MIC at 32 mg/L by CLSI protocol based broth microdilution assay. It is filed as functional.
In assay [5] the test system is Bacteria. The experiment in a line: Inhibition of recombinant NDM-1 (unknown origin) using fluorocillin as substrate in presence of ZnCl2 incubated for 30 mins by fluorescence based assay.
Assay [6] has as its system Pseudomonas aeruginosa. The experiment in a line: Potentiation of imipenem-induced antibacterial activity against Pseudomonas aeruginosa T2357 expressing VIM-1 assessed as imipenem MIC at 32 mg/L by CLSI protocol based broth microdilution assay. The assay is classed as functional.
In assay [7] the test system is Escherichia coli. The experiment in a line: Potentiation of imipenem-induced antibacterial activity against Escherichia coli T2435 expressing KPC-2 assessed as fold change in imipenem MIC at 32 mg/L by CLSI protocol based broth microdilution assay. It is filed as functional.
For assay [8], the system named is Escherichia coli. The experiment in a line: Potentiation of imipenem-induced antibacterial activity against Escherichia coli T2359 expressing NDM-1 assessed as imipenem MIC at 32 mg/L by CLSI protocol based broth microdilution assay. It is filed as functional.
In assay [9] the test system is Pseudomonas aeruginosa. Put plainly: Potentiation of imipenem-induced antibacterial activity against Pseudomonas aeruginosa T1098 expressing IMP-7 assessed as fold change in imipenem MIC at 32 mg/L by CLSI protocol based broth microdilution assay. It is filed as functional.
In assay [10] the test system is Enterobacter cloacae. Put plainly: Potentiation of imipenem-induced antibacterial activity against Enterobacter cloacae T2218 expressing GIM-1 assessed as fold change in imipenem MIC at 32 mg/L by CLSI protocol based broth microdilution assay. The assay is classed as functional.

Activity calls are given as the source filed them. The rule behind the calls is not given here.

As a reminder, the MIC is the lowest concentration that inhibits growth of the organism.

For the compound `N#CCN(Cc1ccccc1)Cc1cc([N+](=O)[O-])c2cccnc2c1O`, the MIC worked out at 0.032 µg/mL in assay [1], 0.06 µg/mL in assay [3], 0.008 µg/mL in assay [6] and 0.0005 µg/mL in assay [8]. Moreover, in [2], the “fractional inhibitory concentration index (FICI)” value is 0.265. Also, the “fold change (FC)” value in assay [4] is 32; in assay [7] it was 1; in [9] it was 8; in [10] it was 4. In addition, the inhibition entry in assay [5] was “inactive”.

The values are drawn from ChEMBL document CHEMBL5046233, “Nitroxoline and its derivatives are potent inhibitors of metallo-β-lactamases” (Eur J Med Chem, 2022).
